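All cell lines were grown in 96-well plates and treated with compound for 48 hours. Here, GI50 denotes the concentration required for 50% inhibition of growth.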 The source made the active and inactive calls. No stated cut-off is given here; in the data, active = GI50 up to about 1.1 µM and inactive = higher.
How the values were obtained:
Assay in all cases: NCI-60 cell line screen, 48 h
NCI-H522 = system: NCI-H522
SNB-75 = system: SNB-75
SR = system: SR
EKVX = system: EKVX
SF-539 = system: SF-539
OVCAR-5 = system: OVCAR-5
SK-MEL-28 = system: SK-MEL-28
NCI-H460 = system: NCI-H460
SK-OV-3 = system: SK-OV-3
M14 = system: M14
NCI/ADR-RES = system: NCI/ADR-RES
NCI-H23 = system: NCI-H23
IGROV-1 = system: IGROV-1
KM12 = system: KM12
MOLT-4 = system: MOLT-4
HCT-15 = system: HCT-15
LOX IMVI = system: LOX IMVI
DMS-273 = system: DMS-273
M19-MEL = system: M19-MEL
HOP-18 = system: HOP-18

NC(CCOCCP(=O)(O)CCOCCC(N)C(=O)O)C(=O)O (configuration not stated)
GI50 (NCI-H522): > 100 µM (inactive) | GI50 (SNB-75): > 100 µM (inactive) | GI50 (SR): > 100 µM (inactive) | GI50 (EKVX): > 100 µM (inactive) | GI50 (SF-539): > 100 µM (inactive) | GI50 (OVCAR-5): > 100 µM (inactive) | GI50 (SK-MEL-28): > 100 µM (inactive) | GI50 (NCI-H460): > 100 µM (inactive) | GI50 (SK-OV-3): > 100 µM (inactive) | GI50 (M14): > 100 µM (inactive) | GI50 (NCI/ADR-RES): > 100 µM (inactive) | GI50 (NCI-H23): > 100 µM (inactive) | GI50 (IGROV-1): > 100 µM (inactive) | GI50 (KM12): > 100 µM (inactive) | GI50 (MOLT-4): > 100 µM (inactive) | GI50 (HCT-15): > 100 µM

COc1cc(S(=O)(=O)Nc2ccc(-c3csc(N4C(=O)C(C)SC4c4cccc(Oc5ccccc5)c4)n3)cc2)ccc1Cl (configuration not stated)
GI50 (NCI-H522): 29.8 µM (inactive) | GI50 (SNB-75): 52.1 µM (inactive) | GI50 (SR): 26.3 µM (inactive) | GI50 (EKVX): 53.2 µM (inactive) | GI50 (SF-539): 27.6 µM (inactive) | GI50 (LOX IMVI): 32.4 µM (inactive) | GI50 (OVCAR-5): 83.2 µM (inactive) | GI50 (SK-MEL-28): 55.8 µM (inactive) | GI50 (SK-OV-3): 52.6 µM (inactive) | GI50 (M14): 34.7 µM (inactive) | GI50 (NCI/ADR-RES): > 100 µM (inactive) | GI50 (NCI-H23): 33 µM (inactive) | GI50 (IGROV-1): 39 µM (inactive) | GI50 (KM12): 34.5 µM (inactive) | GI50 (MOLT-4): 37.8 µM (inactive) | GI50 (HCT-15): 36.9 µM

CCOC(=O)c1nc2ccc(OC)cc2c2c1Cc1ccccc1-2
GI50 (NCI-H522): 56.5 µM (inactive) | GI50 (SNB-75): 81.5 µM (inactive) | GI50 (SR): > 100 µM (inactive) | GI50 (DMS-273): > 100 µM (inactive) | GI50 (SF-539): 84.9 µM (inactive) | GI50 (LOX IMVI): > 100 µM (inactive) | GI50 (OVCAR-5): > 100 µM (inactive) | GI50 (SK-MEL-28): > 100 µM (inactive) | GI50 (NCI-H460): > 100 µM (inactive) | GI50 (M14): > 100 µM (inactive) | GI50 (NCI-H23): > 100 µM (inactive) | GI50 (IGROV-1): > 100 µM (inactive) | GI50 (M19-MEL): > 100 µM (inactive) | GI50 (KM12): > 100 µM (inactive) | GI50 (MOLT-4): > 100 µM (inactive) | GI50 (HCT-15): > 100 µM

COc1cc(C2c3cc4c(cc3[C@@H](Nc3cccc([N+](=O)[O-])c3)C3COC(=O)[C@H]23)OCO4)cc(OC)c1O (some centres not stated)
GI50 (NCI-H522): 2.83 µM (inactive) | GI50 (SNB-75): 4.1 µM (inactive) | GI50 (DMS-273): 0.615 µM (active) | GI50 (EKVX): 3.56 µM (inactive) | GI50 (SF-539): 1.43 µM (inactive) | GI50 (LOX IMVI): 1.63 µM (inactive) | GI50 (OVCAR-5): 2.16 µM (inactive) | GI50 (SK-MEL-28): 5.36 µM (inactive) | GI50 (HOP-18): 3.37 µM (inactive) | GI50 (NCI-H460): 0.02 µM (active) | GI50 (SK-OV-3): 2.51 µM (inactive) | GI50 (NCI/ADR-RES): 8.07 µM (inactive) | GI50 (NCI-H23): 1.55 µM (inactive) | GI50 (IGROV-1): 6.65 µM (inactive) | GI50 (M19-MEL): 4.01 µM (inactive) | GI50 (KM12): 3.01 µM (inactive) | GI50 (MOLT-4): 0.29 µM (active) | GI50 (HCT-15): 1.39 µM

OCC1C2C=CC(O2)[C@H]1CO (some centres not stated)
GI50 (NCI-H522): > 100 µM (inactive) | GI50 (SNB-75): > 100 µM (inactive) | GI50 (SR): > 100 µM (inactive) | GI50 (DMS-273): > 100 µM (inactive) | GI50 (EKVX): > 100 µM (inactive) | GI50 (SF-539): > 100 µM (inactive) | GI50 (LOX IMVI): > 100 µM (inactive) | GI50 (OVCAR-5): > 100 µM (inactive) | GI50 (SK-MEL-28): > 100 µM (inactive) | GI50 (HOP-18): > 100 µM (inactive) | GI50 (NCI-H460): > 100 µM (inactive) | GI50 (SK-OV-3): > 100 µM (inactive) | GI50 (M14): > 100 µM (inactive) | GI50 (IGROV-1): > 100 µM (inactive) | GI50 (M19-MEL): > 100 µM (inactive) | GI50 (KM12): > 100 µM (inactive) | GI50 (MOLT-4): > 100 µM (inactive) | GI50 (HCT-15): > 100 µM

CC1CC=CC(O)C1 (configuration not stated)
GI50 (NCI-H522): > 100 µM (inactive) | GI50 (SNB-75): > 93.5 µM (inactive) | GI50 (DMS-273): > 100 µM (inactive) | GI50 (EKVX): > 100 µM (inactive) | GI50 (SF-539): > 100 µM (inactive) | GI50 (LOX IMVI): > 100 µM (inactive) | GI50 (OVCAR-5): > 100 µM (inactive) | GI50 (SK-MEL-28): > 100 µM (inactive) | GI50 (HOP-18): > 100 µM (inactive) | GI50 (NCI-H460): > 100 µM (inactive) | GI50 (SK-OV-3): > 100 µM (inactive) | GI50 (NCI/ADR-RES): > 100 µM (inactive) | GI50 (NCI-H23): > 100 µM (inactive) | GI50 (IGROV-1): > 100 µM (inactive) | GI50 (M19-MEL): > 100 µM (inactive) | GI50 (KM12): > 100 µM (inactive) | GI50 (MOLT-4): > 100 µM (inactive) | GI50 (HCT-15): > 100 µM

Reference: ChEMBL document CHEMBL1201862, “PubChem BioAssay data set” (2004)
